Where a name gives a salt, the structure may show the parent alone. Read-outs that look alike come from different tables or passages of the source.
Tested on: human primary T-cells, IL-2 stimulated proliferation (JAK-1 and JAK-3 dependent; reported as JAK3 activity)
Test: Human primary T-cell proliferation stimulated by IL-2 (Example 3)
Type: cell-based
Details: tested under conditions described in Example 3 (IL-2 stimulated human primary T-cell proliferation), read-out: ability to inhibit JAK3 activity, IC50 range (Table V)
In short: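 Peripheral-blood human T-cells pre-activated via TCR/CD28, IL-2-starved overnight, then cultured 72 h at 37 °C with compound in Yssel's medium containing IL-2 (80 U/mL in cell suspension). Proliferation read as viable-cell ATP by CellTiter-Glo luminescence; reduction versus control taken as JAK pathway inhibition.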

SMILES	IC50 (Homo sapiens, T-cell)	IC50
Cc1cnc(Nc2ccc(-c3ccncc3)c(F)c2)nc1Nc1ccc2oc(=O)[nH]c2c1 [Compound I-484, 5-(2-(3-fluoro-4-(pyridin-4-yl)phenylamino)-5-methylpyrimidin-4-ylamino)benzo[d]oxazol-2(3H)-one]	0.5 to 5 µM	
Cc1cnc(Nc2cnc(N3CC4CNCC4C3)c(F)c2)nc1Nc1ccc2oc(=O)[nH]c2c1 (stereo not drawn) [II-50, 5-{2-[5-Fluoro-6-(hexahydro-pyrrolo[3,4-c]pyrrol-2-yl)-pyridin-3-ylamino]-5-methyl-pyrimidin-4-ylamino}-3H-benzooxazol-2-one]	< 0.5 µM	
CN1CCN(c2ccc(Nc3ncc(F)c(Nc4ccc5c(c4)n(C)c(=O)n5C)n3)cn2)CC1 [II-21, N4-(1,3-dimethylbenzimidazolin-2-on-5-yl)-N2-[2-(4-methylpiperazino)pyridin-5-yl]-5-fluoropyrimidine-2,4-diamine]		0.5 to 5 µM
Cc1cnc(Nc2ccc(F)c(-c3ccncc3)c2)nc1Nc1ccc2oc(=O)[nH]c2c1 [Compound I-471, 5-(2-(4-fluoro-3-(pyridin-4-yl)phenylamino)-5-methylpyrimidin-4-ylamino)benzo[d]oxazol-2(3H)-one]	< 0.5 µM	
Cc1ccc(Nc2ncc(C)c(Nc3ccc4oc(=O)n(C)c4c3)n2)cc1NS(C)(=O)=O [Compound I-82, N2-((3-methylsulfonylamino-4-methyl)phenyl)-N4-(3-methyl-2-oxo-2,3-dihydrobenzo[d]oxazol-5-yl)-5-methylpyrimidine-2,4-diamine]		< 0.5 µM
Cc1cnc(Nc2cnc(N3CCN(C)CC3)c(Cl)c2)nc1Nc1ccc2oc(=O)[nH]c2c1 [II-116, N2-[3-chloro-2-(4-methylpiperazino)pyridin-5-yl]-5-methyl-N4-(2-oxo-2,3-dihydro-1,3-benzoxazol-5-yl)-2,4-pyrimidinediamine]	< 0.5 µM	
COc1cc(Nc2ncc(C)c(Nc3ccc4oc(=O)[nH]c4c3)n2)cc(C)c1OC [Compound I-452, 5-(2-(3,4-dimethoxy-5-methylphenylamino)-5-methylpyrimidin-4-ylamino)benzo[d]oxazol-2(3H)-one]	< 0.5 µM	
Cc1cnc(Nc2ccc(N(C)S(C)(=O)=O)cc2)nc1Nc1ccc2oc(=O)n(C)c2c1 [Compound I-94, N2-((4-methylsulfonyl-N-methylamino)phenyl)-N4-(3-methyl-2-oxo-2,3-dihydrobenzo[d]oxazol-5-yl)-5-methylpyrimidine-2,4-diamine]		< 0.5 µM
COC(=O)COc1cccc(Nc2ncc(C)c(Nc3ccc4oc(=O)[nH]c4c3)n2)c1 [Compound I-305, N2-(3-methoxycarbonylmethoxy)phenyl-5-methyl-N4-(2-oxo-2,3-dihydro-1,3-benzoxazol-5-yl)-2,4-pyrimidinediamine]		0.5 to 5 µM
Cc1cnc(Nc2ccc(S(C)(=O)=O)nc2)nc1Nc1ccc2oc(=O)[nH]c2c1 [II-43, 5-[2-(6-Methanesulfonyl-pyridin-3-ylamino)-5-methyl-pyrimidin-4-ylamino]-3H-benzooxazol-2-one]	< 0.5 µM	
Cc1cnc(Nc2cccc(C=O)c2)nc1Nc1ccc2oc(=O)[nH]c2c1 [Compound I-1, N4-(benzo[d]oxazol-2(3H)-on-5-yl)-N2-(3-formylphenyl)-5-methylpyrimidine-2,4-diamine]	0.5 to 5 µM	
Cc1cnc(Nc2ccc(C(=O)NC3CC3)cc2)nc1Nc1ccc2oc(=O)[nH]c2c1 [Compound I-134, N-Cyclopropyl-4-[5-methyl-4-(2-oxo-2,3-dihydro-benzooxazol-5-ylamino)-pyrimidin-2-ylamino]-benzamide formate salt]	< 0.5 µM	
Cc1cnc(Nc2ccc(N3CCN(C(=O)OC(C)(C)C)C(C)C3)nc2)nc1Nc1ccc2oc(=O)[nH]c2c1 (stereo not drawn) [II-11, N4-(benzo[d]oxazol-2(3H)-on-5-yl)-N2-(6-(3-methyl-4-tert-butoxycarbonylpiperazin-1-yl)pyridin-3-yl)-5-methylpyrimidine-2,4-diamine]	< 0.5 µM	
Cc1cnc(Nc2ccc(-c3cccnc3)c(F)c2)nc1Nc1ccc2oc(=O)[nH]c2c1 [Compound I-505, 5-(2-(3-fluoro-4-(pyridin-3-yl)phenylamino)-5-methylpyrimidin-4-ylamino)benzo[d]oxazol-2(3H)-one trifluoroacetic acid salt]	> 10 µM	
Cc1cnc(Nc2ccc(N3CCCC3)c(C#N)c2)nc1Nc1ccc2oc(=O)[nH]c2c1 [Compound I-310, N2-[3-cyano-4-(pyrrolidin-1-yl)]phenyl-5-methyl-N4-(2-oxo-2,3-dihydro-1,3-benzoxazol-5-yl)-2,4-pyrimidinediamine]		< 0.5 µM
Cc1cc(C)c(Nc2ncc(C)c(Nc3ccc4oc(=O)[nH]c4c3)n2)c(C)c1 [IV-61, 5-[5-Methyl-2-(2,4,6-trimethyl-phenylamino)-pyrimidin-4-ylamino]-3H-benzooxazol-2-one]	> 10 µM	
Cc1cnc(Nc2ccc(NS(C)(=O)=O)cc2)nc1Nc1ccc2[nH]c(=O)oc2c1 [Compound I-103, N2-((4-methylsulfonylamino)phenyl)-N4-(2-oxo-2,3-dihydrobenzo[d]oxazol-6-yl)-5-methylpyrimidine-2,4-diamine]		> 10 µM

SMILES	IC50 (Homo sapiens, T-cell)	IC50
COc1ccc(Nc2ncc(C)c(Nc3ccc4oc(=O)[nH]c4c3)n2)cc1-c1ccncc1 [Compound I-486, 5-(2-(4-methoxy-3-(pyridin-4-yl)phenylamino)-5-methylpyrimidin-4-ylamino)benzo[d]oxazol-2(3H)-one formate salt]	< 0.5 µM	
Cc1cnc(Nc2ccc(N3CCN(C(=O)C(F)(F)F)[C@H](C)C3)nc2)nc1Nc1ccc2oc(=O)[nH]c2c1 [II-57, (R)-5-(5-methyl-2-(6-(3-methyl-4-(2,2,2-trifluoroacetyl)piperazin-1-yl)pyridin-3-ylamino)pyrimidin-4-ylamino)benzo[d]oxazol-2(3H)-one]	< 0.5 µM	
COc1ccc(Nc2ncc(C)c(Nc3ccc4oc(=O)[nH]c4c3)n2)cc1F [Compound I-350, N2-(3-fluoro-4-methoxy)phenyl-5-methyl-N4-(2-oxo-2,3-dihydro-1,3-benzoxazol-5-yl)-2,4-pyrimidinediamine]		< 0.5 µM
CCC(=O)n1c(=O)oc2ccc(Nc3nc(Nc4ccc(C(N)=O)cc4)ncc3C)cc21 [Compound I-145, 4-[5-Methyl-4-(2-oxo-3-propionyl-2,3-dihydro-benzooxazol-5-ylamino)-pyrimidin-2-ylamino]-benzamide]	< 0.5 µM	
CN(c1ccc(Nc2ncc(F)c(Nc3ccc4c(c3)oc(=O)n4C)n2)cc1)S(C)(=O)=O [Compound I-97, N2-((4-methylsulfonyl-N-methylamino)phenyl)-N4-(3-methyl-2-oxo-2,3-dihydrobenzo[d]oxazol-6-yl)-5-fluoropyrimidine-2,4-diamine]		> 10 µM
Cc1cnc(Nc2ccc3c(c2)NC(=O)CCC3)nc1Nc1ccc2oc(=O)[nH]c2c1 [IV-23, 5-(5-methyl-2-(2-oxo-2,3,4,5-tetrahydro-1H-benzo[b]azepin-8-ylamino)pyrimidin-4-ylamino)benzo[d]oxazol-2(3H)-one]	< 0.5 µM	
Cc1cnc(Nc2ccc(N3C[C@@H]4C[C@H]3CO4)nc2)nc1Nc1ccc2oc(=O)[nH]c2c1 [II-32, N4-(benzoxazolin-2-on-5-yl)-N2-[2-((1S,4S)-2-oxa-5-azabicyclo[2.2.1]heptan-5-yl)pyridin-5-yl]-5-methylpyrimidine-2,4-diamine]	< 0.5 µM	
Cc1cnc(Nc2ccc(N3C[C@@H]4C[C@H]3CN4C)nc2)nc1Nc1ccc2oc(=O)[nH]c2c1 [II-31, N4-(benzoxazolin-2-on-5-yl)-N2-[2-((1S,4S)-5-methyl-2,5-diazabicyclo[2.2.1]heptan-2-yl)pyridin-5-yl]-5-methylpyrimidine-2,4-diamine]	< 0.5 µM	
Cc1cnc(Nc2ccc(NC3CCN(C)CC3)nc2)nc1Nc1ccc2oc(=O)[nH]c2c1 [II-35, N4-(benzo[d]oxazol-2(3H)-on-5-yl)-N2-[2-(1-methylpiperidin-4-yl)aminopyridin-5-yl]-5-methylpyrimidine-2,4-diamine]	< 0.5 µM	
Cc1cnc(Nc2cccc(S(=O)(=O)NC(C)C)c2)nc1Nc1ccc2oc(=O)[nH]c2c1 [Compound I-114, N4-(benzoxazolin-2-on-5-yl)-N2-[3-N-(i-propyl)aminosulfonylphenyl]-5-methylpyrimidine-2,4-diamine]		< 0.5 µM
Cn1c(=O)oc2ccc(Nc3nc(Nc4ccc(S(C)(=O)=O)cc4)ncc3F)cc21 [Compound I-78, N2-((4-methylsulfonyl)phenyl)-N4-(3-methyl-2-oxo-2,3-dihydrobenzo[d]oxazol-5-yl)-5-fluoropyrimidine-2,4-diamine]		0.5 to 5 µM
COc1c(F)ccc(Nc2ncc(C)c(Nc3ccc4oc(=O)[nH]c4c3)n2)c1F [Compound I-200, 5-[2-(2,4-Difluoro-3-methoxy-phenylamino)-5-methyl-pyrimidin-4-ylamino]-3H-benzooxazol-2-one]	< 0.5 µM	
Cc1cnc(Nc2ccc(C3NCC4CCCCC43)nc2)nc1Nc1ccc2oc(=O)[nH]c2c1 (stereo not drawn) [II-121, 5-methyl-N2-[2-(octahydroisoindol-1-yl)pyridin-5-yl]-N4-(2-oxo-2,3-dihydro-1,3-benzoxazol-5-yl)-2,4-pyrimidinediamine]	< 0.5 µM	
Cc1cnc(Nc2ccc(N3CC[C@@H](N(C)C)C3)nc2)nc1Nc1ccc2oc(=O)[nH]c2c1 [II-89, (R)-5-(2-(6-(3-(dimethylamino)pyrrolidin-1-yl)pyridin-3-ylamino)-5-methylpyrimidin-4-ylamino)benzo[d]oxazol-2(3H)-one]	< 0.5 µM	
O=c1[nH]c2cc(Nc3nc(Nc4ccc(N5C[C@@H]6C[C@H]5CO6)nc4)ncc3F)ccc2o1 [II-34, N4-(benzoxazolin-2-on-5-yl)-N2-[2-((1S,4S)-2-oxa-5-azabicyclo[2.2.1]heptan-5-yl)pyridin-5-yl]-5-fluoropyrimidine-2,4-diamine]	< 0.5 µM	
CS(=O)(=O)Nc1ccc(Nc2ncc(F)c(Nc3ccc4oc(=O)[nH]c4c3)n2)cc1 [Compound I-53]		< 0.5 µM

From patent US10005767B2, “Compositions and methods for inhibition of the JAK pathway” (Rigel Pharmaceuticals, Inc., priority 2009, dated 2018)
